Measured values: US20140155415A1, “BENZ[…] BENZODIOXINE COMPOUNDS THAT INTERACT WITH G[…] FOR THE TREATMENT OF DIABETES” (priority 2011, published 2014)

Experiments:
[1] = biological target: T1, GK-GKRP (interaction between glucokinase and glucokinase regulatory protein) (Homo sapiens, UniProt Q14397); test: GK-GKRP Binding Assay (Binding), AlphaScreen; details: avi-tagged GKRP, GK-fluorescein, AlphaScreen beads, 1 μM sorbitol-6-phosphate; read-out: GK-GKRP IC50 (Binding)
T1 construct: made in house; host or cells: GKRP: baculovirus system
T1 sequence (Q14397 1-625): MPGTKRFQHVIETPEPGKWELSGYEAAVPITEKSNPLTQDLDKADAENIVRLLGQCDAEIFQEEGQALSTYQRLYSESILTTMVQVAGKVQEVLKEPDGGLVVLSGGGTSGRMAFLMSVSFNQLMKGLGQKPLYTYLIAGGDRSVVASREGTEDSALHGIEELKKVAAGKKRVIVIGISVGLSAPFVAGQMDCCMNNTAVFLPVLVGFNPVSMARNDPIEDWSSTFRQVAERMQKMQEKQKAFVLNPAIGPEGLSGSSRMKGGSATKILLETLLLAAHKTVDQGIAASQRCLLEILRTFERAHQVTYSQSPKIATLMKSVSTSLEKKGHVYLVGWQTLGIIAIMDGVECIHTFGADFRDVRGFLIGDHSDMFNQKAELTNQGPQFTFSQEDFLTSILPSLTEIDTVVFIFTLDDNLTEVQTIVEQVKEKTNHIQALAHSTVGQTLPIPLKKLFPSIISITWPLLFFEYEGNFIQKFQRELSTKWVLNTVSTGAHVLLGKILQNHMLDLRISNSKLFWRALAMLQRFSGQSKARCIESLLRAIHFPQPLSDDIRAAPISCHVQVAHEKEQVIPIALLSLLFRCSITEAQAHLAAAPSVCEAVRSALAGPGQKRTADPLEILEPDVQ
Summary of the method: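 Biotinylated, C-terminally avi-tagged human GKRP was preincubated 20 min at room temperature with compound, then fluorescein-labelled human hepatic GK was added (6 nM in the added buffer). The mix was incubated 2 h at room temperature in the dark before AlphaScreen reading. Buffer was 20 mM Tris pH 7.5, 0.05% BSA, 1 mM DTT, 1 μM sorbitol-6-phosphate.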

[2] = biological target: T2, GK-GKRP (glucokinase / glucokinase regulatory protein) (Homo sapiens, UniProt Q14397); test: GKRP LC MS/MS Biochemical Assay (LCMS/MS); details: formation of 13C-glucose-6-phosphate from 13C-glucose by LC MS/MS, human His-hepatic GK, fructose-6-phosphate
T2 sequence (Q14397 1-625): T1 sequence (Q14397 1-625)
Summary of the method: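 Human His-tagged hepatic GK (30 nM working stock, 5×) with GKRP in 50 mM Tris pH 7.5, 4 mM MgCl2, 6% DMSO; compound preincubated 30 min, then GK added for 30 min at room temperature. Acetonitrile-stopped; 13C-glucose-6-phosphate formed from 13C-glucose quantified by LC MS/MS.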

Row | Structure (SMILES) | IC50 [1] [µM] | EC50 [2] [µM]
1 | O=S(=O)(N[C@H](c1cc2ccccc2o1)c1ccccc1Cl)c1ccc2c(c1)OCCCO2 (single isomer, unassigned) [Example 20 Peak #1] | 5.7 | > 20
2 | O=S(=O)(N[C@@H](c1cc2ccccc2o1)c1ccccc1Cl)c1ccc2c(c1)OCCCO2 (single isomer, unassigned) [Example 20 Peak #2] | 0.078 | 0.03
3 | O=S(=O)(N[C@H](c1cc2ccccc2o1)c1ccccc1I)c1ccc2c(c1)OCCCO2 (single isomer, unassigned) [Example 21 Peak #1] | > 33 | > 20
4 | O=S(=O)(N[C@@H](c1cc2ccccc2o1)c1ccccc1I)c1ccc2c(c1)OCCCO2 (single isomer, unassigned) [Example 21 Peak #2] | 0.04 | 0.042
5 | O=S(=O)(N[C@H](c1cc2ccccc2o1)c1ccccc1Br)c1ccc2c(c1)OCCCO2 (single isomer, unassigned) [Example 22 Peak #1] | 4.5 | > 20
6 | O=S(=O)(N[C@@H](c1ccccn1)c1cc2ccccc2o1)c1ccc2c(c1)OCCCO2 (single isomer, unassigned) [Example 25 Peak #1] | 3.8 | 6
7 | O=S(=O)(N[C@H](c1ccccn1)c1cc2ccccc2o1)c1ccc2c(c1)OCCCO2 (single isomer, unassigned) [Example 25 Peak #2] | 0.21 | 0.29
8 | Cc1cccnc1[C@@H](NS(=O)(=O)c1ccc2c(c1)OCCCO2)c1cc2ccccc2o1 (single isomer, unassigned) [Example 26 Peak #2] | 0.12 | 0.085

Next, values leading:

Row | IC50 [1] [µM] | EC50 [2] [µM] | Structure (SMILES)
9 | 0.046 | 0.023 | CSc1ccccc1[C@@H](NS(=O)(=O)c1ccc2c(c1)OCCCO2)c1cc2ccccc2o1 (single isomer, unassigned) [Example 19 Peak #2]
10 | 0.083 | 0.026 | O=S(=O)(N[C@@H](c1cc2ccccc2o1)c1ccccc1Br)c1ccc2c(c1)OCCCO2 (single isomer, unassigned) [Example 22 Peak #2]
11 | 4 | > 20 | Cc1ccccc1[C@H](NS(=O)(=O)c1ccc2c(c1)OCCCO2)c1cc2ccccc2s1 (single isomer, unassigned) [Example 36 Peak #1]
12 | 0.24 | 0.062 | Cc1ccccc1[C@@H](NS(=O)(=O)c1ccc2c(c1)OCCCO2)c1cc2ccccc2s1 (single isomer, unassigned) [Example 36 Peak #2]
13 | 1.3 | > 20 | CCc1ccccc1[C@H](NS(=O)(=O)c1ccc2c(c1)OCCCO2)c1cc2ccccc2s1 (single isomer, unassigned) [Example 37 Peak #1]
14 | 0.13 | 0.038 | CCc1ccccc1[C@@H](NS(=O)(=O)c1ccc2c(c1)OCCCO2)c1cc2ccccc2s1 (single isomer, unassigned) [Example 37 Peak #2]
15 | 0.36 | 0.13 | COc1ccccc1[C@H](NS(=O)(=O)c1ccc2c(c1)OCCCO2)c1cc2ccccc2s1 (single isomer, unassigned) [Example 40 Peak #1]
16 | 0.028 | 0.026 | COc1ccccc1[C@@H](NS(=O)(=O)c1ccc2c(c1)OCCCO2)c1cc2ccccc2s1 (single isomer, unassigned) [Example 40 Peak #2]
17 | 0.14 | 0.04 | CSc1ccccc1[C@H](NS(=O)(=O)c1ccc2c(c1)OCCCO2)c1cc2ccccc2s1 (single isomer, unassigned) [Example 41 Peak #1]
18 | 0.008 | 0.013 | CSc1ccccc1[C@@H](NS(=O)(=O)c1ccc2c(c1)OCCCO2)c1cc2ccccc2s1 (single isomer, unassigned) [Example 41 Peak #2]
19 | 3 | 0.7 | O=S(=O)(N[C@@H](c1ccccc1)c1cc2ccccc2s1)c1ccc2c(c1)OCCCO2 (single isomer, unassigned) [Example 57 Peak #1]
